US9145425B2, “Cephem compound having catechol group” (SHIONOGI & CO., LTD., priority 2010, dated 2015)
≈ marks a conversion by molar mass, not a printed value. Counter-ions that a name gives are not always drawn. Like-named read-outs stand apart in the source and are kept apart here. Blank lines part the entries; values can stand above or below the compound they belong to.

Experiments:
[1] = tested on: P. aeruginosa SR27001 (multi-resistant Pseudomonas aeruginosa; IMP-1 producing strain); experiment: Antimicrobial activity in vivo, mouse intraperitoneal infection, ED50 from survival rate; conditions: Mice (ICR type, male, 5 weeks), intravenous administration in twice from 1.5 h after infection, survival rate after 7 days
Procedure: The antimicrobial activity in vivo of the present compound (I) was determined.
Mice (ICR type, male, 5 weeks) were inoculated intraperitoneally with P. aeruginosa SR27001 (multi-resistant Pseudomonas aeruginosa; IMP-1 producing strain) to raise infection. One and half hours after, mice were treated with intravenious administration in twice, and then the ED50 value was calculated based on the survival rate after 7 days.

[2] = tested on: P. aeruginosa SR27001 (multi-resistant Pseudomonas aeruginosa; IMP-1 producing strain); experiment: Antimicrobial activity in vitro (MIC) of the in vivo test compounds; assay type: cell-based; conditions: addition of Tf
Procedure: (§1) Measurement of Minimum Inhibitory Concentration (MIC, μg/ml) was conducted according to the standard method of the Japan Society for Chemotherapy and the amount of bacteria for inoculation was 1000 cfu/spot, and sensitive disc medium was used as the test medium, and conducted using agar plate incubation.
The antimicrobial activity in vitro (MIC) of the test compounds was determined according to the method of Experimental Example 1.

[3] = tested on: Acinetobacter baumannii SR24396; experiment: Minimum Inhibitory Concentration (MIC), agar plate incubation, Japan Society for Chemotherapy standard method; assay type: cell-based
Procedure: (§2) The antimicrobial activity in vitro of the present compound (I) was determined.
as §1
(§3) In the tables, the unit of the values of inhibitory activity is μg/ml.

[4] = tested on: Klebsiella pneumoniae ATCC 700603; experiment: as above; assay type: cell-based
Procedure: as §2, §1, §3

[5] = tested on: Pseudomonas aeruginosa SR24; experiment: as above; assay type: cell-based
Procedure: as §2, §1, §3

[6] = tested on: Pseudomonas aeruginosa SR27060; experiment: as above; assay type: cell-based
Procedure: as §2, §1, §3

[7] = tested on: Stenotrophomonas maltophilia SR21970; experiment: Minimum Inhibitory Concentration (MIC), agar plate incubation, CLSI method; assay type: cell-based
Procedure: as §2
Measurement of Minimum Inhibitory Concentration (MIC, μg/ml) was conducted according to the CLSI (Clinical and Laboratory Standards Institute) and the amount of bacteria for inoculation was 10000 cfu/spot, and Mueller-Hinton agar medium was used as the test medium, and conducted using agar plate incubation.
as §3

[8] = Pseudomonas aeruginosa, read-out: ED50
[9] = Pseudomonas aeruginosa, read-out: MIC
[10] = Acinetobacter baumannii SR24396, no enzyme, 1000 cfu/spot, sensitive disc medium
[11] = Klebsiella pneumoniae ATCC 700603, SHV-18, ESBL producer strain, 1000 cfu/spot, sensitive disc medium
[12] = Pseudomonas aeruginosa SR24, no enzyme, ceftazidime sensitive strain, 1000 cfu/spot, sensitive disc medium
[13] = Pseudomonas aeruginosa SR27060, IMP-1, MBL producer strain (carbapenem resistant strain), 1000 cfu/spot, sensitive disc medium
[14] = Stenotrophomonas maltophilia SR21970, L-1, MBL producer strain (carbapenem resistant strain), 10000 cfu/spot, Mueller-Hinton agar medium
[15] = Acinetobacter baumannii, SR24396, read-out: Minimum Inhibitory Concentration (MIC)
[16] = Klebsiella pneumoniae, ATCC700603, read-out: Minimum Inhibitory Concentration (MIC)
[17] = Pseudomonas aeruginosa, SR24, read-out: Minimum Inhibitory Concentration (MIC)
[18] = Pseudomonas aeruginosa, SR27060, read-out: Minimum Inhibitory Concentration (MIC)
[19] = Stenotrophomonas maltophilia, SR21970, read-out: Minimum Inhibitory Concentration (MIC)
[20] = Acinetobacter baumannii SR24396, no enzyme, 1000 cfu/spot, sensitive disc medium, read-out: Minimum Inhibitory Concentration (MIC)
[21] = ATCC700603, Klebsiella pneumoniae ATCC 700603, SHV-18, ESBL producer strain, 1000 cfu/spot, sensitive disc medium, read-out: Minimum Inhibitory Concentration (MIC)
[22] = Pseudomonas aeruginosa SR24, no enzyme, ceftazidime sensitive strain, 1000 cfu/spot, sensitive disc medium, read-out: Minimum Inhibitory Concentration (MIC)
[23] = Pseudomonas aeruginosa SR27060, IMP-1, MBL producer strain (carbapenem resistant strain), 1000 cfu/spot, sensitive disc medium, read-out: Minimum Inhibitory Concentration (MIC)
[24] = Stenotrophomonas maltophilia SR21970, L-1, MBL producer strain (carbapenem resistant strain), 10000 cfu/spot, Mueller-Hinton agar medium, read-out: Minimum Inhibitory Concentration (MIC)

MIC [2, 9]: > 64 µg/mL
SMILES: CO/N=C(\C(=O)N[C@@H]1C(=O)N2C(C(=O)[O-])=C(C[N+]3(C)CCCC3)CS[C@H]12)c1csc(N)n1 [CFPM, cefepime hydrochloride hydrate, reference compound]
ED50 [1, 8]: > 100 mg/kg

MIC [2, 9]: 1 µg/mL
SMILES: C[C@H](O/N=C(\C(=O)N[C@@H]1C(=O)N2C(C(=O)[O-])=C(C[N+]34CCC[C@H]3CN(C(=O)c3ccc(O)c(O)c3Cl)CC4)CS[C@H]12)c1csc(N)n1)C(=O)[O-].[Na+] (stereo partly shown) [Compound I-13]
ED50 [1, 8]: 4.22 mg/kg

MIC [2]: 2 µg/mL
SMILES: CC(C)(ON=C(C(=O)NC1C(=O)N2C(C(=O)[O-])=C(C[N+](C)(C)C3CCN(C(=O)c4ccc(O)c(O)c4Cl)C3)CSC12)c1csc(N)n1)C(=O)[O-].[Na+] (stereo not shown) [Compound I-20]
ED50 [1]: 5.48 mg/kg

Minimum Inhibitory Concentration (MIC) [3, 10]: 0.125 µg/mL
Minimum Inhibitory Concentration (MIC) [4, 11]: 0.25 µg/mL
Minimum Inhibitory Concentration (MIC) [5, 12]: 0.125 µg/mL
Minimum Inhibitory Concentration (MIC) [6, 13]: 0.5 µg/mL
Minimum Inhibitory Concentration (MIC) [7, 14]: 1 µg/mL
MIC [2]: 1 µg/mL
SMILES: CCC(ON=C(C(=O)NC1C(=O)N2C(C(=O)[O-])=C(C[N+]34CCC(CC3)N(C(=O)c3ccc(O)c(O)c3Cl)CC4)CSC12)c1csc(N)n1)C(=O)[O-].[Na+] (stereo not shown) [Compound I-25]
ED50 [1]: 3.34 mg/kg

SMILES: CC(C)(O/N=C(\C(=O)N[C@@H]1C(=O)N2C(C(=O)O)=C(C[N+]3(C)[C@@H]4CC[C@H]3C[C@@H](NC(=O)c3cc(O)c(O)c(Cl)c3)C4)CS[C@H]12)c1csc(N)n1)C(=O)[O-] (stereo partly shown) [II-50]
MIC [3, 15]: 0.25 µg/mL (≈ 0.321 µM)
MIC [4, 16]: 0.25 µg/mL (≈ 0.321 µM)
MIC [5, 17]: 0.125 µg/mL (≈ 0.161 µM)
MIC [6, 18]: 0.5 µg/mL (≈ 0.642 µM)
MIC [7, 19]: 0.5 µg/mL (≈ 0.642 µM)

SMILES: C[N+]1(CC2=C(C(=O)[O-])N3C(=O)C(NC(=O)C(=NOC(CC(=O)O)C(=O)[O-])c4csc(N)n4)C3SC2)C2CCC1CC(NC(=O)c1cc(O)c(O)c(Cl)c1)C2.[Na+] (stereo not shown) [II-51]
Minimum Inhibitory Concentration (MIC) [3, 10]: 0.125 µg/mL
Minimum Inhibitory Concentration (MIC) [4, 11]: 0.25 µg/mL
Minimum Inhibitory Concentration (MIC) [5, 12]: 0.125 µg/mL
Minimum Inhibitory Concentration (MIC) [6, 13]: 0.25 µg/mL
Minimum Inhibitory Concentration (MIC) [7, 14]: 0.25 µg/mL

SMILES: Nc1nc(/C(=N/O[C@@H](CC(=O)[O-])C(=O)[O-])C(=O)N[C@@H]2C(=O)N3C(C(=O)[O-])=C(C[N+]45CCC[C@H]4CN(C(=O)c4cc(O)c(O)c(Cl)c4)CC5)CS[C@H]23)cs1.[Na+].[Na+] (stereo partly shown) [II-57]
Minimum Inhibitory Concentration (MIC) [3, 10]: 0.063 µg/mL
Minimum Inhibitory Concentration (MIC) [4, 11]: 0.25 µg/mL
Minimum Inhibitory Concentration (MIC) [5, 12]: 0.063 µg/mL
Minimum Inhibitory Concentration (MIC) [6, 13]: 0.5 µg/mL
Minimum Inhibitory Concentration (MIC) [7, 14]: 0.5 µg/mL

SMILES: Nc1nc(C(=NOC(CC(=O)[O-])C(=O)[O-])C(=O)NC2C(=O)N3C(C(=O)[O-])=C(C[N+]45CCC(CNC(=O)c6ccc(O)c(O)c6Cl)(CC4)CC5)CSC23)cs1.[Na+].[Na+] (stereo not shown) [II-58]
Minimum Inhibitory Concentration (MIC) [3, 10]: 0.125 µg/mL
Minimum Inhibitory Concentration (MIC) [4, 11]: 0.5 µg/mL
Minimum Inhibitory Concentration (MIC) [5, 12]: 0.25 µg/mL
Minimum Inhibitory Concentration (MIC) [6, 13]: 0.5 µg/mL
Minimum Inhibitory Concentration (MIC) [7, 14]: 0.5 µg/mL

SMILES: CC[C@H](O/N=C(\C(=O)N[C@@H]1C(=O)N2C(C(=O)O)=C(C[N+]34CCC(CNC(=O)c5ccc(O)c(O)c5Cl)(CC3)CC4)CS[C@H]12)c1csc(N)n1)C(=O)[O-] [II-59]
MIC [3, 20]: 0.125 µg/mL (≈ 0.161 µM)
MIC [4, 21]: 0.5 µg/mL (≈ 0.642 µM)
MIC [5, 22]: 0.25 µg/mL (≈ 0.321 µM)
MIC [6, 23]: 0.5 µg/mL (≈ 0.642 µM)
MIC [7, 24]: 1 µg/mL (≈ 1.28 µM)

SMILES: CC(C)(O/N=C(\C(=O)N[C@@H]1C(=O)N2C(C(=O)O)=C(C[N+]3(C)[C@@H]4CC[C@H]3C[C@@H](NC(=O)c3ccc(O)c(O)c3Cl)C4)CS[C@H]12)c1nsc(N)n1)C(=O)[O-] (stereo partly shown) [II-63]
MIC [3, 20]: 0.125 µg/mL (≈ 0.16 µM)
MIC [4, 21]: 1 µg/mL (≈ 1.28 µM)
MIC [5, 22]: 0.063 µg/mL (≈ 0.0808 µM)
MIC [6, 23]: 0.5 µg/mL (≈ 0.642 µM)
MIC [7, 24]: 0.5 µg/mL (≈ 0.642 µM)

SMILES: CC(C)[C@H](O/N=C(\C(=O)N[C@@H]1C(=O)N2C(C(=O)O)=C(C[N@+]3(C)[C@@H]4CC[C@H]3C[C@@H](NC(=O)c3ccc(O)c(O)c3Cl)C4)CS[C@H]12)c1csc(N)n1)C(=O)[O-] [III-3]
MIC [3, 20]: 0.125 µg/mL (≈ 0.158 µM)
MIC [4, 21]: 0.25 µg/mL (≈ 0.316 µM)
MIC [5, 22]: 0.125 µg/mL (≈ 0.158 µM)
MIC [6, 23]: 0.5 µg/mL (≈ 0.631 µM)
MIC [7, 24]: 0.5 µg/mL (≈ 0.631 µM)

SMILES: CC(C)(O/N=C(\C(=O)N[C@@H]1C(=O)N2C(C(=O)O)=C(C[N+]34CCCC3(CNC(=O)c3ccc(O)c(O)c3Cl)CCC4)CS[C@H]12)c1csc(N)n1)C(=O)[O-] (stereo partly shown) [III-5]
MIC [3, 15]: 0.25 µg/mL (≈ 0.321 µM)
MIC [4, 16]: 0.125 µg/mL (≈ 0.161 µM)
MIC [5, 17]: 0.125 µg/mL (≈ 0.161 µM)
MIC [6, 18]: 0.5 µg/mL (≈ 0.642 µM)
MIC [7, 19]: 0.25 µg/mL (≈ 0.321 µM)

SMILES: C[N+]1(CC2=C(C(=O)[O-])N3C(=O)C(NC(=O)C(=NOC(CC(=O)O)C(=O)[O-])c4csc(N)n4)C3SC2)C2CCC1CC(NC(=O)c1ccc(O)c(O)c1C(F)(F)F)C2.[Na+] (stereo not shown) [III-14]
Minimum Inhibitory Concentration (MIC) [3, 10]: 0.125 µg/mL
Minimum Inhibitory Concentration (MIC) [4, 11]: 0.5 µg/mL
Minimum Inhibitory Concentration (MIC) [5, 12]: 0.25 µg/mL
Minimum Inhibitory Concentration (MIC) [6, 13]: 0.5 µg/mL
Minimum Inhibitory Concentration (MIC) [7, 14]: 0.25 µg/mL
